From patent US20250127824A1, “BACTERIAL STRAIN USED IN THE PREVENTION AND/OR TREATMENT OF INFLAMMATORY PATHOLOGIES” (VERB BIOTICS, priority 2021, published 2025)

Assays:
[1] = system: HT-29 colon adenocarcinoma line; assay: IL-8 secretion by TNF-α-stimulated HT-29 cells, supernatant with or without 5-ASA or Budesonide; format: cell-based; settings: TNF-α 5 ng/ml, 6 h, 10% supernatant
Experimental: The HT-29 cells (ECACC) were inoculated into 24-well plates at 3×10^5 cells per well in McCoy's 5A (Gibco) medium supplemented with 10% fetal calf serum (FCS, Gibco) and incubated at 37° C./5% […] for 24 h. The cells were washed with PBS-1× (Gibco) and cultivated for an additional 24 h in McCoy's 5A medium at 2% FCS. The cells were then stimulated for 6 hours with 5 ng/ml of TNF-α in the presence of 10% of supernatant in stationary phase of DSM 33715 or of bacterial culture medium as control (ctrl), whether or not in the presence of anti-inflammatory agents. 5-ASA (10 mM) and budesonide (20 μM) are molecules used in the treatment of inflammatory diseases, such as ulcerative colitis and Crohn's disease. After 6 h, the cell culture supernatants were collected and stored at −80° C. until the […] was quantified by ELISA. The IL-8 assay was carried out by BioLegend specific ELISA, according to the manufacturer's instructions. The absorbance at 460 nm was read using the FluoStar Omega microplate reader of BMG Labtech. Statistics: Sidak's multiple comparisons test. * p<0.05, ** p<0.01, *** […], **** p<0.0001. […]

[2] = system: JAK/STAT pathway; assay: JAK/STAT luciferase reporter in IFN-γ-stimulated HT-29 cells, supernatant with or without Tofacitinib; format: cell-based; settings: 10% supernatant, Tofacitinib 1 μM, 6 h
Experimental: HT-29 cells at a density of 3×10^5 cells/well, in 24-well plate, were transfected according to a reverse-transfection protocol, with 200 ng of pGL4 luc2P GAS-RE (IFN-γ-dependent JAK/STAT signaling pathway) and 10 ng of pRL-TK vector (Promega), using X-tremeGENE HP DNA transfection reagent with a 3:1 ratio (Roche). To summarize, the reactive/DNA transfection complexes were prepared in a final volume of 50 μl of McCoy's 5A without serum and without antibiotic, the appropriate amount of each plasmid was added and homogenized, and then the transfection agent was added (3:1). The transfection complexes were carefully mixed and incubated at room temperature for 15 minutes. After incubation, the transfection complexes were added to the freshly resuspended HT-29 cells at the appropriate density in McCoy's 5A medium supplemented with 10% FCS, and then the cell/transfection complex mixtures were gently homogenized and placed on plates. The plates were incubated for 24 h in a humid atmosphere at 5% C02 and the medium was then replaced with medium at 2% FCS for 12 h, after washing with PBS IX. […]
The activity of the luciferase Firefly was read. Then 50 μl reagent Stop&Glo was added and the measurement of the Renilla activity was read with the FLUOstar Omega plate reader (BMG Labtech). […]

Nc1ccc(O)c(C(=O)O)c1 [5-ASA]
secretion of IL-8 reduced relative to the control (Panel A) ([1]; 5-ASA 10 mM): 38%

CCCC1O[C@@H]2C[C@H]3[C@@H]4CCC5=CC(=O)C=C[C@]5(C)[C@H]4[C@@H](O)C[C@]3(C)[C@]2(C(=O)CO)O1 (stereo partly drawn) [Budesonide]
secretion of IL-8 reduced relative to the control (Panel B) ([1]; budesonide 20 μM): 38%

C[C@@H]1CCN(C(=O)CC#N)C[C@@H]1N(C)c1ncnc2[nH]ccc12 [Tofacitinib]
decrease in the IFN-γ-induced activation of the JAK/STAT pathway [2]: 49%
